# Laboratory results: ChEMBL document CHEMBL3044865, “Herbicidal Activity and Characteristics of Pyraflufen-ethyl for Controlling Broad-leaved Weeds in Cereals” (J Pestic Sci, 2002)
# Activity calls are given as the source filed them. The calls are words filed in the database; no cut-off is given here.
# How the values were obtained:
# [1] = test system: Triticum aestivum; assay: Phytotoxicity in Triticum aestivum (wheat) assessed as injury at 10 g/ha pre emergence application measured after 21 days after treatment; assay type: organism-based; settings: in vivo, other, 504 h
# [2] = test system: Triticum aestivum; assay: Phytotoxicity in Triticum aestivum (wheat) assessed as injury at 3 g/ha post emergence application measured after 21 days after treatment; assay type: organism-based; settings: in vivo, other, 504 h
# [3] = test system: Alopecurus myosuroides; assay: Herbicidal activity against Alopecurus myosuroides assessed as killing at 30 g/ha post emergence application measured after 21 days after treatment; assay type: functional, organism-based
# [4] = test system: Alopecurus myosuroides; assay: Herbicidal activity against Alopecurus myosuroides assessed as killing at 10 g/ha pre emergence application measured after 21 days after treatment; assay type: functional, organism-based
# [5] = test system: Viola arvensis; assay: Ratio of compound ED90 to necoprop-p ED90 for herbicidal activity against Viola arvensis
# [6] = biological target: T1, Protoporphyrinogen oxidase 2 (Spinacia oleracea) (UniProt Q94IG7); assay: Inhibition of Stellaria media protoporphyinogen oxidase assessed as herbicidal activity at 0.3 g/ha measured after 21 days after treatment under greenhouse by time-course analysis; set-up: scale not given: the % may be the effect or the level left
# T1 sequence (whole entry): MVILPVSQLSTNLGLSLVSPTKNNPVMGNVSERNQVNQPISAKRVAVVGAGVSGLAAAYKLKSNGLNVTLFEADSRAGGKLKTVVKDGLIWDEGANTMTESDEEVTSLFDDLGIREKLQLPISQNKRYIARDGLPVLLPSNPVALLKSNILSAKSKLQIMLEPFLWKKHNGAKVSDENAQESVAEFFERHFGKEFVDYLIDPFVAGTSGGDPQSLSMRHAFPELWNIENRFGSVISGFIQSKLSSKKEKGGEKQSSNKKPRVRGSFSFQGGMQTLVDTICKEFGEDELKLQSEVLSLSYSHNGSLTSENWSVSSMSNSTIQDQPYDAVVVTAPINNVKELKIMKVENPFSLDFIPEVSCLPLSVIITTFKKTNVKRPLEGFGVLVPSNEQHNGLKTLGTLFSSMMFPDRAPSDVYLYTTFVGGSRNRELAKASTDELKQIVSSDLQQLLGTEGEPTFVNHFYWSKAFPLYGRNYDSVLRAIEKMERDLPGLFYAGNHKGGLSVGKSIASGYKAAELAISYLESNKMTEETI
# [7] = biological target: T1, Protoporphyrinogen oxidase 2 (Spinacia oleracea); assay: Inhibition of Stellaria media protoporphyrinogen oxidase by post-emergence herbicidal activity assay
# [8] = test system: Veronica hederifolia; assay: Herbicidal activity against Veronica hederaefolia assessed as killing at 1 g/ha post emergence application measured after 21 days after treatment; assay type: functional
# [9] = test system: Veronica hederifolia; assay: Herbicidal activity against Veronica hederaefolia assessed as killing at 0.3 g/ha post emergence application measured after 21 days after treatment; assay type: functional
# [10] = test system: Viola arvensis; assay: Herbicidal activity against Viola arvensis assessed as killing at 10 g/ha pre emergence application measured after 21 days after treatment; assay type: functional
# [11] = test system: Stellaria media; assay: Herbicidal activity against Stellaria media assessed as killing at 300 g/ha post emergence application measured after 21 days after treatment; assay type: functional
# [12] = test system: Stellaria media; assay: Herbicidal activity against Stellaria media assessed as killing at 100 g/ha post emergence application measured after 21 days after treatment; assay type: functional
# [13] = test system: Stellaria media; assay: Herbicidal activity against Stellaria media assessed as killing at 1 g/ha post emergence application measured after 21 days after treatment; assay type: functional
# [14] = test system: Galium aparine; assay: Herbicidal activity against Galium aparine assessed as killing at 10 g/ha pre emergence application measured after 21 days after treatment; assay type: functional
# [15] = test system: Galium aparine; assay: Herbicidal activity against Galium aparine assessed as killing at 3 g/ha post emergence application measured after 21 days after treatment; assay type: functional
# [16] = test system: Galium aparine; assay: Herbicidal activity against Galium aparine assessed as killing at 0.3 g/ha post emergence application measured after 21 days after treatment; assay type: functional
# [17] = test system: Avena fatua; assay: Herbicidal activity against Avena fatua assessed as killing at 100 g/ha post emergence application measured after 21 days after treatment; assay type: functional
# [18] = test system: Avena fatua; assay: Herbicidal activity against Avena fatua assessed as killing at 30 g/ha post emergence application measured after 21 days after treatment; assay type: functional, organism-based
# [19] = test system: Hordeum vulgare; assay: Phytotoxicity in Hordeum vulgare (barley) assessed as injury at 30 g/ha pre emergence application measured after 21 days after treatment; assay type: organism-based; settings: in vivo, other, 504 h
smiles,measurement,setting,value
CCOC(=O)COc1cc(-c2nn(C)c(OC(F)F)c2Cl)c(F)cc1Cl [PYRAFLUFEN-ETHYL],Activity,[1],Non-toxic
same,Activity,[2],1%
same,Activity,[3],inactive
same,Activity,[4],inactive
same,Ratio,[5],200
same,Activity,[6],> 90%
same,ED90,[7],0.3 gAi/ha
same,Activity,[8],90%
same,Activity,[9],40%
same,Activity,[10],11%
same,Activity,[11],100%
same,Activity,[12],90%
same,Activity,[13],100%
same,Activity,[14],11%
same,Activity,[15],100%
same,Activity,[16],60%
same,Activity,[17],1%
same,Activity,[18],inactive
same,Activity,[19],Non-toxic
